The results in this text go back to patent US10035791B2, “Bicyclic compound and pharmaceutical composition thereof for treating stroke and use thereof” (China Medical University, priority 2016, dated 2018).

The subject of test [1] is primary cortical cultures (PCCs). As to the kind of experiment: Lactate dehydrogenase (LDH) release rate analysis, H2O2-treated PCCs. The test is classed as cell-based, C57BL/6 mice. As to conditions: for LDH release rate of the PCCs treated with H2O2: compound 100 μM, 10^-4 mol/L H2O2, 24 hours, FIG. 1F; for concentration at which the LDH release rate of the PCCs is reduced most: tested 0.1, 1, 10 and 100 μM, FIG. 1G. Here is the method: H2O2 can cause an oxidative damage to cells and a destruction of the cell membrane, and consequently the LDH is released into medium. For that reason, the lower rate of the LDH released into the culture medium is represented the fewer damaged cells and better cell protection effect of sample.
Test cells are primary cortical cultures (PCCs) in this example. The PCCs are prepared from cerebral cortexes of gestation day 17 embryos from C57BL/6 mice as described previously (Cell Death Differ 2008; 15: 143-151). The PCCs are maintained under serum-free conditions in neurobasal medium (Invitrogen), supplemented with B-27 supplement (2%; invitrogen), glutamine (0.5 mM; Sigma Aldrich), glutamate ([…]; Sigma Aldrich), penicillin (100 U/ml) and streptomycin ([…]; Invitrogen). At 4 days in vitro, half of the medium is removed and replaced with fresh medium without glutamate. The cultures are maintained in a humidified incubator at 37° C. with 5% CO2. At 7 days in vitro, the PCCs are used for experimentation.
The PCCs are seeded in a 24-well plate and are allowed to stand for 20 minutes. […] The PCCs are maintained at 37° C. in a humidified atmosphere of 5% CO2 for 24 hours. After incubation, the culture medium is collected and washed twice with phosphate buffered saline (PBS), and then are analyzed the LDH activity in the culture medium by using LDH Cytotoxicity Detection Kit (TaKaRa Bio Laboratories, Japan) to calculate the percentage cytotoxicity, which is represented the situation of cells damage, of the PCCs. The lower percentage cytotoxicity presents the lower LDH activity detected and less severe of cells damages, which indicates the better cell protection effect of the sample. The LDH activity is measured by a colorimetry. After a reaction between enzyme and particular substrate, an absorbance of the reaction solution and the LDH activity is linearly correlated. The LDH activity (U/10^−3 L) is calculated by a reduced optical density slope at a wavelength of 340 nm within three minutes. A lactate dehydrogenase activity unit is defined as a catalytic consumption of […] NADH per minute.

In the next test the test system is ischemic rats. The test can be described thus: Volume of the infarction after cerebral ischemia, magnetic resonance imaging (MRI). The test is classed as in vivo, Sprague-Dawley (SD) rats. As to conditions: 30 mg/kg, 7 days after the injection, FIGS. 18A, 18B. The source says: The ischemic rats are induced by an ischemia-reperfusion model to simulate transient focal cerebral ischemia in rats. Test animals are male Sprague-Dawley (SD) rats weighing 250-300 g. The rats are anesthetized with chloral hydrate (0.4 g/kg IP) and subjected to cerebral ischemia. The ischemia-reperfusion model is induced by ligations of bilateral common carotid arteries (CCAs) and a right middle cerebral artery (MCA). The bilateral CCAs are clamped with non-traumatic arterial clips, and the right MCA is ligated with an 10-0 nylon suture. After 90 minutes ischemia, the suture on the MCA and the arterial clips on CCAs are removed to allow reperfusion. Core body temperature is monitored with a thermistor probe (Hewlett-Packard Model 21090A probe, Hewlett-Packard Company, Andover, Mass.), and maintained at 37° C. with a heating pad during anesthesia. After recovery from anesthesia, rat body temperature is maintained at 37° C. with a heat lamp.
Further, the ischemic rats are assigned into 5 groups, 4 test groups and 1 control group. The ischemic rats of the test groups are injected with 1 mg/kg of the Compound 1, 30 mg/kg of the genipin, 1 mg/kg of the Compound 1 and 100 mg/kg of 2-ME2, and 1 mg/kg of the Compound 1 and the LV-Bmi-1-sh, respectively. The ischemic rats of the control group are injected with the vehicle. At 7 days after the injection, the ischemic rats of the different groups are anesthetized, and the volume of the infarction thereof is assessed by a magnetic resonance imaging (MRI).

In the case of `COC(=O)C1=CO[C@@H](O)[C@@H]2C(COC(=O)[C@H](Cc3ccccc3)NC(=O)OC(C)(C)C)=CC[C@H]12` [Compound 3], in test [1], the “LDH release rate of the PCCs treated with H2O2” value was “lower LDH release rate” and the “concentration at which the LDH release rate of the PCCs is reduced most” value (“concentration … of the PCCs is reduced most” below) was found to be 100 µM. For the compound `COC(=O)C1=CO[C@@H](OC(=O)[C@@H](N)Cc2ccccc2)[C@@H]2C(COC(=O)[C@@H](N)Cc3ccccc3)=CC[C@H]12` [Compound 15], in test [1], the “LDH release rate of the PCCs treated with H2O2” value is on record as “lower LDH release rate” and the “concentration … of the PCCs is reduced most” value worked out at 100 µM. Consider `COC(=O)C1=CO[C@@H](O)[C@@H]2C(CO)=CC[C@H]12` [genipin, reference compound], for which, in the test on ischemic rats, the “area of the largest infarction (MRI)” value is “reduced” and the “volume of the infarction (MRI)” value is listed as “reduced”. Regarding `COC(=O)C1=CO[C@@H](OC(=O)[C@@H](N)Cc2ccccc2)[C@@H]2C(CO)=CC[C@H]12` [Compound 16], the “concentration … of the PCCs is reduced most” value in test [1] came out at 100 µM.
